In patent publication US8551722B2, “Time-course measurement of enzymatic activity corrected for impacts of disturbances relating to the reaction of the enzyme with a substrate” (Synapse B.V., priority 2008, dated 2013):
Residues, ends and D or L forms follow the SMILES beside them. *: point of attachment. AMC = Cc1cc(=O)oc2cc(N*)ccc12; Cbz = O=C(OCc1ccccc1)*; Bz = O=C(c1ccccc1)*

What was measured:
Assay type in all cases: biochemical
[1] = target: T1, thrombin (Homo sapiens, UniProt P00734); assay: Diagnostic plot of fluorogenic substrates measured in bulk fluid, to judge use in thrombin generation measurement; design: from tissue; host or cells: blood plasma of healthy human donors; conditions: 1 mM substrate, judged from the diagnostic plot
Procedure: The development of fluorescence intensity from aminomethylcoumarine (AMC) is typically measured in a 96-well plate fluorometer (Ascent reader, Thermolabsystems OY, Helsinki Finland) equipped with a 390/460 filter set (excitation/emission) and a dispenser. Immulon 2HB, round-bottom 96-well plates (Dynex) are used. Minimally four readings are done per minute and experiments are carried out in quadruplicate unless otherwise indicated.
To each well, 80 μl of plasma is added. Wells in which TG is measured receive 20 μl of buffer, containing the trigger but no Ca^2+.
Wells in which constant thrombin-like activity is to be measured receive 20 μl of the α2M-thrombin solution at the required concentration as indicated. For PPP, the trigger is 30 pM of recombinant tissue factor (TF) and 24 μM phosphatidyl-serine/phosphatidyl-choline/phosphatidyl-ethanolamine vesicles in Hepes-buffered saline. For PRP the trigger is 20 μl of 3 pM of rTF without added PL.
The plate is placed in the fluorometer and allowed to warm to 37° C. (minimally 15 min). The dispenser of the fluorometer is flushed with warm 100 mM CaCl2 solution, emptied, and then flushed with a prewarmed (37° C.) solution of the substrate in Hepes buffer with 60 g/L bovine serum albumin (FluCa). At the start of the experiment, the instrument dispenses 20 μl of FluCa to all the wells to be measured, registers this as zero time, shakes them for 10 s and starts reading.
A similar approach as that of example 4 can be applied to fluorogenic substrates. The substrates, previously described in ref [35] were, from left to right are BZ-Phe-Val-Arg-AMC, Z-Gly-Pro-Arg-AMC and Z-Pro-Arg-AMC, all tested at a concentration of 1 mM in the setup described under methods.
The scaling factor necessary to convert the arbitrary dF/dt values into nM thrombin is derived from the measurement of the amidolytic activity on a thrombin substrate of the material remaining after thrombin generation is over, as in example 3.

[2] = target: T1, thrombin; assay: Diagnostic plot (dOD/dt against OD) of chromogenic substrates at fixed thrombin activity, to judge use in thrombin generation measurement
Procedure: A suitable chromogenic substrate, i.e. a substrate from which a chromogenic group is split when acted upon by the enzyme to be measured (thrombin, plasmin etc), is added to the reaction mixture. Unless otherwise indicated, for thrombin generation, this mixture consists of four parts of defibrinated plasma, one part of trigger solution and one part of start solution. The reactions can be carried out in a spectrophotometer cuvette, a 96 well plate to be read in a photometric well-plate reader or in a laboratory automaton as e.g. the Cobas Bio and Cobas Fara centrifugal analysers (F. Hoffmann-La Roche, Basel, Switzerland). In short in any device capable of measuring the optical density at 405 nm at 30 s intervals during 10 to 30 min.
Typically 80 μL of defibrinated plasma with 20 μL of rTF without Ca2+ are incubated at 37° C., during a time sufficient for temperature equilibration. Thrombin generation is started by adding 20 μL of a pre-warmed start solution containing 100 mM CaCl2 and 3 mM substrate. After the start of the reaction the optical density at 405 nm is recorded at intervals of maximally 30 s for the time required (≧15 min). Depending upon the measuring device a multiple of the volumes can be used.
This amount is determined by the maximal enzyme potential (η) that to be expected in the experiments. […] In the experiment to obtain the diagnostic plot the enzyme concentration (E) is constant and known. So the enzyme potential (η) is known and can be rendered In the diagnostic plot (curved thin lines in FIG. 8).
In this table η indicates the enzyme potential that is to be expected in the thrombingeneration experiment and limit indicates the limit of enzyme potential that can be measured with the indicated substrate at the indicated concentration.
In FIG. 8 it is seen that straight lines fit through the data over the whole range of ODs measured for three of the four substrates tested. For one (S2238) the straight line fits only up to mOD˜650.

[3] = target: T1, thrombin; assay: Km of chromogenic thrombin substrates, obtained in buffer; conditions: obtained in buffer and not in plasma
Text: (NB: The Km values have been obtained in buffer and not in plasma but any value of Km between 0.5 and 2 times the present one would have allowed similar conclusions as to the suitability in thrombingenration experiments)

[4] = S 50 μM, E 250 nM (MSC), 300 nM (SQ68)
[5] = S 100 μM, E 0.4 nM (S2238), 250 nM (MSC), 300 nM (SQ68)
[6] = S 150 μM, E 250 nM (MSC), 300 nM (SQ68)

Cc1cc(=O)oc2cc(NC(=O)[C@H](CCCN=C(N)N)NC(=O)[C@@H](NC(=O)[C@H](Cc3ccccc3)NC(=O)c3ccccc3)C(C)C)ccc12 [BZ-Phe-Val-Arg-AMC] (Bz-Phe-Val-Arg-{AMC})
suitability for the measurement of thrombin generation (fluorogenic substrates) [1]: can be used for the measurement of thrombin generation

CC(C)C(NC(=O)OCCS(C)(=O)=O)C(=O)NC(CCCN=C(N)N)C(=O)Nc1ccc([N+](=O)[O-])cc1 (stereo not drawn) [MSC, Msc-Val-Arg-pNA]
η (enzyme potential to be expected in the thrombin generation experiment) ([2]; S 50 μM): 1.06 µM·min | limit (limit of enzyme potential that can be measured with the substrate at the indicated concentration) [2, 4]: >15 nM·min | η (enzyme potential to be expected in the thrombin generation experiment) ([2]; S 100 μM): 1.11 µM·min | limit (limit of enzyme potential that can be measured with the substrate at the indicated concentration) [2, 5]: >15 nM·min | η (enzyme potential to be expected in the thrombin generation experiment) ([2]; S 150 μM): 1.17 µM·min | limit (limit of enzyme potential that can be measured with the substrate at the indicated concentration) [2, 6]: >15 nM·min | Km [3]: 882 µM

NC(N)=NCCC[C@H](NC(=O)[C@@H]1CCCCN1C(=O)[C@H](N)Cc1ccccc1)C(=O)Nc1ccc([N+](=O)[O-])cc1 [S2238, HD-Phe-Pip-Arg-pNA]
OD up to which the straight line fits the diagnostic plot ([2]; FIG. 8): ~650 mOD | η (enzyme potential to be expected in the thrombin generation experiment) ([2]; S 100 μM): 11 µM·min | limit (limit of enzyme potential that can be measured with the substrate at the indicated concentration) [2, 5]: 0.014 nM·min | enzyme potential read from the plot at the OD where the straight line stops fitting ([2]; at mOD ~650): ~12.5 nM·min | ETP to be measured in the presence of this substrate ([2]; due to tight binding and inhibition of natural antithrombins): 11000 nM·min | suitability for the measurement of thrombin generation (chromogenic substrates) ([2]; judged from the diagnostic plot): unsuitable for the measurement of thrombin generation | Km [3]: 10 µM

COC(=O)CC(=O)NC(C)(C)C(=O)NC(CCCNC(=N)N)C(=O)Nc1ccc([N+](=O)[O-])cc1.Cl (stereo not drawn) [SQ68, Malonyl-α-aminoisobutyryl-arginine para-nitroanilide methyl ester-HCl]
η (enzyme potential to be expected in the thrombin generation experiment) ([2]; S 50 μM): 1.06 µM·min | limit (limit of enzyme potential that can be measured with the substrate at the indicated concentration) [2, 4]: >30 nM·min | η (enzyme potential to be expected in the thrombin generation experiment) ([2]; S 100 μM): 1.12 µM·min | limit (limit of enzyme potential that can be measured with the substrate at the indicated concentration) [2, 5]: >30 nM·min | η (enzyme potential to be expected in the thrombin generation experiment) ([2]; S 150 μM): 1.18 µM·min | limit (limit of enzyme potential that can be measured with the substrate at the indicated concentration) [2, 6]: >30 nM·min | Km [3]: 830 µM

Cc1cc(=O)oc2cc(NC(=O)[C@H](CCCN=C(N)N)NC(=O)[C@@H]3CCCN3C(=O)CNC(=O)OCc3ccccc3)ccc12 [Z-Gly-Pro-Arg-AMC] (Cbz-Gly-Pro-Arg-{AMC})
suitability for the measurement of thrombin generation (fluorogenic substrates) [1]: turnover number that is so high as to have the substrate consumed before thrombin generation is over

Cc1cc(=O)oc2cc(NC(=O)C(CCCN=C(N)N)NC(=O)C3CCCN3C(=O)OCc3ccccc3)ccc12 (stereo not drawn) [Z-Pro-Arg-AMC] (Cbz-Pro-Arg-{AMC}; configuration not given here)
suitability for the measurement of thrombin generation (fluorogenic substrates) [1]: can be used for the measurement of thrombin generation

DEMZ-Gly-Arg-pNA
η (enzyme potential to be expected in the thrombin generation experiment) ([2]; S 500 μM): 1.58 µM·min | limit (limit of enzyme potential that can be measured with the substrate at the indicated concentration) ([2]; S 500 μM, E 50 nM): >2 nM·min | Km [3]: 866 µM
